Experimental data published in patent US20210254056A1, “IDENTIFICATION AND TARGETED MODULATION OF GENE SIGNALING NETWORKS” (CAMP4 THERAPEUTICS CORPORATION, priority 2017, published 2021).

Tested on: hepatocytes
Assay: RNA-seq of hepatocytes treated with Phase III failure compounds
Procedure: RNA-seq was performed to determine the effects of the compounds on hepatocytes.
Significance was determined by the criteria of FPKM≥0.5, a log 2(fold-change)≥1, and a […].

Compound: CCC(CC)[C@H](NC(C)=O)[C@@H]1[C@H](O)[C@@H](C(=O)O)C[C@H]1NC(=N)N.O.O.O [peramivir (trihydrate), peramivir]
- RNA-seq results, gene HYLS1 (HYLS1 expression in hepatocytes): −0.16
- RNA-seq results, gene ID1 (ID1 expression in hepatocytes): −0.69
- RNA-seq results, gene IDH1 (IDH1 expression in hepatocytes): 0.19
- RNA-seq results, gene IDH2 (IDH2 expression in hepatocytes): 0
- RNA-seq results, gene IDUA (IDUA expression in hepatocytes): 0.34
- RNA-seq results, gene IFIH1 (IFIH1 expression in hepatocytes): −0.06
- RNA-seq results, gene IFNAR2 (IFNAR2 expression in hepatocytes): 0.01
- RNA-seq results, gene IFT27 (IFT27 expression in hepatocytes): 0.27
- RNA-seq results, gene IFT80 (IFT80 expression in hepatocytes): −0.41
- RNA-seq results, gene IFT122 (IFT122 expression in hepatocytes): −0.16
- RNA-seq results, gene IFT140 (IFT140 expression in hepatocytes): 0.27
- RNA-seq results, gene IFT172 (IFT172 expression in hepatocytes): 0.16
- RNA-seq results, gene IGFALS (IGFALS expression in hepatocytes): 0.11
- RNA-seq results, gene IKBKG (IKBKG expression in hepatocytes): 0.3
- RNA-seq results, gene IL1RN (IL1RN expression in hepatocytes): 0.21
- RNA-seq results, gene IL2RG (IL2RG expression in hepatocytes): 0.6
- RNA-seq results, gene INSR (INSR expression in hepatocytes): 0.28
- RNA-seq results, gene INVS (INVS expression in hepatocytes): −0.03
- RNA-seq results, gene ISYNA1 (ISYNA1 expression in hepatocytes): −0.17
- RNA-seq results, gene ITGB3 (ITGB3 expression in hepatocytes): 0.27
- RNA-seq results, gene IYD (IYD expression in hepatocytes): −0.02
- RNA-seq results, gene JAG1 (JAG1 expression in hepatocytes): −0.1
- RNA-seq results, gene JAK2 (JAK2 expression in hepatocytes): −0.14
- RNA-seq results, gene KCTD7 (KCTD7 expression in hepatocytes): 0.11
- RNA-seq results, gene KCTD11 (KCTD11 expression in hepatocytes): −0.21
- RNA-seq results, gene KHK (KHK expression in hepatocytes): 0.03
- RNA-seq results, gene KIAA0586 (KIAA0586 expression in hepatocytes): −0.2
- RNA-seq results, gene KMT2D (KMT2D expression in hepatocytes): −0.05
- RNA-seq results, gene KPTN (KPTN expression in hepatocytes): 0.22
- RNA-seq results, gene KRIT1 (KRIT1 expression in hepatocytes): −0.1
- RNA-seq results, gene KRT18 (KRT18 expression in hepatocytes): −0.47
- RNA-seq results, gene KYNU (KYNU expression in hepatocytes): 0.16
- RNA-seq results, gene LAMB2 (LAMB2 expression in hepatocytes): 0.01
- RNA-seq results, gene LCAT (LCAT expression in hepatocytes): 0.11
- RNA-seq results, gene LDHB (LDHB expression in hepatocytes): −0.34
- RNA-seq results, gene LDLR (LDLR expression in hepatocytes): 0.24
- RNA-seq results, gene LDLRAP1 (LDLRAP1 expression in hepatocytes): 0.2
- RNA-seq results, gene LIPC (LIPC expression in hepatocytes): −0.29
- RNA-seq results, gene LIPT1 (LIPT1 expression in hepatocytes): −0.12
- RNA-seq results, gene LMNB2 (LMNB2 expression in hepatocytes): 0.14
- RNA-seq results, gene LPA (LPA expression in hepatocytes): 0.07
- RNA-seq results, gene LPIN1 (LPIN1 expression in hepatocytes): 0.22
- RNA-seq results, gene LPIN2 (LPIN2 expression in hepatocytes): 0.1
- RNA-seq results, gene LRBA (LRBA expression in hepatocytes): −0.32
- RNA-seq results, gene LRP5 (LRP5 expression in hepatocytes): 0.15
- RNA-seq results, gene LYRM4 (LYRM4 expression in hepatocytes): 0.19
- RNA-seq results, gene LYST (LYST expression in hepatocytes): −0.14
- RNA-seq results, gene MAN1A1 (MAN1A1 expression in hepatocytes): −0.26
- RNA-seq results, gene MAN2B1 (MAN2B1 expression in hepatocytes): 0.13
- RNA-seq results, gene MAOB (MAOB expression in hepatocytes): −0.16
- RNA-seq results, gene MAT1A (MAT1A expression in hepatocytes): 0.3
- RNA-seq results, gene MBL2 (MBL2 expression in hepatocytes): −0.47
- RNA-seq results, gene MCCC1 (MCCC1 expression in hepatocytes): 0.01
- RNA-seq results, gene MCCC2 (MCCC2 expression in hepatocytes): −0.2
- RNA-seq results, gene MCM6 (MCM6 expression in hepatocytes): −0.05
- RNA-seq results, gene MEN1 (MEN1 expression in hepatocytes): 0.15
- RNA-seq results, gene MET (MET expression in hepatocytes): −0.2
- RNA-seq results, gene MGAT2 (MGAT2 expression in hepatocytes): 0.09
- RNA-seq results, gene MKS1 (MKS1 expression in hepatocytes): 0.17
- RNA-seq results, gene MLH1 (MLH1 expression in hepatocytes): −0.06
- RNA-seq results, gene MMAA (MMAA expression in hepatocytes): −0.35
- RNA-seq results, gene MMAB (MMAB expression in hepatocytes): 0.27
- RNA-seq results, gene MMADHC (MMADHC expression in hepatocytes): −0.24
- RNA-seq results, gene MOCS1 (MOCS1 expression in hepatocytes): 0.13
- RNA-seq results, gene MOGAT2 (MOGAT2 expression in hepatocytes): −0.04
- RNA-seq results, gene MOGS (MOGS expression in hepatocytes): 0.24
- RNA-seq results, gene MPZ (MPZ expression in hepatocytes): 0.41
- RNA-seq results, gene MRPL3 (MRPL3 expression in hepatocytes): −0.06
- RNA-seq results, gene MTHFR (MTHFR expression in hepatocytes): 0.35
- RNA-seq results, gene MTM1 (MTM1 expression in hepatocytes): −0.13
- RNA-seq results, gene MTO1 (MTO1 expression in hepatocytes): −0.03
- RNA-seq results, gene MTR (MTR expression in hepatocytes): −0.08
- RNA-seq results, gene MTRR (MTRR expression in hepatocytes): −0.2
- RNA-seq results, gene MTTP (MTTP expression in hepatocytes): −0.29
- RNA-seq results, gene MVK (MVK expression in hepatocytes): 0.29
- RNA-seq results, gene MYH9 (MYH9 expression in hepatocytes): 0.02
- RNA-seq results, gene MYO5B (MYO5B expression in hepatocytes): 0.2
- RNA-seq results, gene NAGS (NAGS expression in hepatocytes): 0.46
- RNA-seq results, gene NARS2 (NARS2 expression in hepatocytes): −0.14
- RNA-seq results, gene NAT2 (NAT2 expression in hepatocytes): −0.1
- RNA-seq results, gene NBAS (NBAS expression in hepatocytes): −0.22
- RNA-seq results, gene NCF2 (NCF2 expression in hepatocytes): 0.47
- RNA-seq results, gene NEK1 (NEK1 expression in hepatocytes): 0.1
- RNA-seq results, gene NEK8 (NEK8 expression in hepatocytes): 0.29
- RNA-seq results, gene NEU1 (NEU1 expression in hepatocytes): 0.51
- RNA-seq results, gene NFKB2 (NFKB2 expression in hepatocytes): 0.12
- RNA-seq results, gene NFKBIA (NFKBIA expression in hepatocytes): −0.06
- RNA-seq results, gene NFU1 (NFU1 expression in hepatocytes): −0.04
- RNA-seq results, gene NGLY1 (NGLY1 expression in hepatocytes): −0.07
- RNA-seq results, gene NHP2 (NHP2 expression in hepatocytes): 0.21
- RNA-seq results, gene NME1 (NME1 expression in hepatocytes): 0.06
- RNA-seq results, gene NOD2 (NOD2 expression in hepatocytes): 0.33
- RNA-seq results, gene NOP10 (NOP10 expression in hepatocytes): 0.2
- RNA-seq results, gene NOTCH1 (NOTCH1 expression in hepatocytes): 0.16
- RNA-seq results, gene NOTCH2 (NOTCH2 expression in hepatocytes): −0.03
- RNA-seq results, gene NPC1 (NPC1 expression in hepatocytes): 0.3
- RNA-seq results, gene NR1H4 (NR1H4 expression in hepatocytes): 0.22
- RNA-seq results, gene NUBPL (NUBPL expression in hepatocytes): −0.06
- RNA-seq results, gene NUDT7 (NUDT7 expression in hepatocytes): −0.23
- RNA-seq results, gene NUDT12 (NUDT12 expression in hepatocytes): −0.17
- RNA-seq results, gene OAT (OAT expression in hepatocytes): 0.1
- RNA-seq results, gene OPA3 (OPA3 expression in hepatocytes): 0.03
- RNA-seq results, gene OTC (OTC expression in hepatocytes): −0.18
- RNA-seq results, gene PAF1 (PAF1 expression in hepatocytes): 0.09
- RNA-seq results, gene PAH (PAH expression in hepatocytes): 0.05
- RNA-seq results, gene PANK2 (PANK2 expression in hepatocytes): −0.22
- RNA-seq results, gene PAOX (PAOX expression in hepatocytes): 0.16
- RNA-seq results, gene PC (PC expression in hepatocytes): 0.17
- RNA-seq results, gene PCCA (PCCA expression in hepatocytes): 0.13
- RNA-seq results, gene PCK2 (PCK2 expression in hepatocytes): 0.46
- RNA-seq results, gene PCSK9 (PCSK9 expression in hepatocytes): 0.26
- RNA-seq results, gene PCYT1A (PCYT1A expression in hepatocytes): 0.09
- RNA-seq results, gene PDGFRA (PDGFRA expression in hepatocytes): −0.43
- RNA-seq results, gene PDP1 (PDP1 expression in hepatocytes): −0.04
- RNA-seq results, gene PEPD (PEPD expression in hepatocytes): 0.32
- RNA-seq results, gene PEX11A (PEX11A expression in hepatocytes): 0.02
- RNA-seq results, gene PEX12 (PEX12 expression in hepatocytes): 0.11
- RNA-seq results, gene PEX14 (PEX14 expression in hepatocytes): 0.15
